Test results reported in patent US9096832B2, “Differentiation of human embryonic stem cells” (LifeScan, Inc., priority 2007, dated 2015).

Assays:
[1] = test system: H9P49 embryonic stem cells; assay: Pancreatic endoderm under feeder-free conditions: retinoic acid analogues (real-time PCR); type: cell-based, human
Method: At day 5, cells were collected for evaluation by FACS and real-time PCR. […] The resulting definitive endoderm cells at day 5 were exposed to the following media conditions to induce pancreatic endoderm formation: culturing in DMEM/F12 media supplemented with 2% FBS and 1 μM all-trans retinoic acid (RA) (Catalog#R2625, Sigma, MO), or 0.1-10 μM AM-580 (4-[(5,6,7,8-Tetrahydro-5,5,8,8-tetramethyl-2-naphthalenyl)carboxamido]benzoic acid, Catalog#A8843, Sigma, MO), or 0.1-1 μM TTNPB (4-[(E)-2-(5,6,7,8-Tetrahydro-5,5,8,8-tetramethyl-2-naphthalenyl)-1-propenyl]benzoic acid Arotinoid acid, Catalog#T3757, Sigma, MO) for 3 days. AM-580 and TTNPB are retinoic acid analogs with affinity for retinoic acid receptors. RA treatment was followed by additional three day treatment in DMEM/F 12 media supplemented with 2% FBS and 20-50 ng/ml bFGF (Catalog#F0291, Sigma, MO).

[2] = test system: human embryonic stem cell line H1 at passage 55; assay: Definitive endoderm on human serum coated plates (real-time PCR); type: cell-based; settings: with activin A, vs activin A only
Method: Cultures of the human embryonic stem cell line H1 at passage 55 were grown and differentiated on human serum (Sigma, #H1388, MO) coated plates. 0.5 ml of human serum was added to each well of 6 well tissue culture treated dish, incubated for 1 hr at room temperature, and aspirated before adding human embryonic stem cells. […] These findings parallel our findings for human embryonic stem cells cultured on […]™ or human fibronectin coated plates.

[3] = test system: H9P46-P48 embryonic stem cells; assay: Definitive endoderm on […]: effect of GSK-3B inhibitor IX (FACS CXCR4, PCR); type: cell-based, human; settings: day 5
Method: In order to confirm that the effect of Wnt-3a was through the Wnt pathway, a GSK-3 inhibitor was used to activate the downstream targets of Wnt, such as beta catenin. […] FIG. 29, panel a depicts the expression of CXCR4 by FACS at day 5 in the absence of Wnt-3a or GSK-3B inhibitor, b) +20 ng/ml Wnt-3a, c) +1000 nM GSK-3B inhibitor IX, d) +500 nM GSK-3B inhibitor IX, e) +100 nM GSK-3B inhibitor IX, f) +10 nM GSK-3B inhibitor IX, g) +100 nM GSK-3B inhibitor IX for days 1-2, and h) +10 nM GSK-3B inhibitor IX for days 1-2.

H1P54 ES cells = assay: Evaluation of various GSK-3B inhibitors in DE formation (real-time PCR); type: cell-based, human; settings: 100 nM for first two days, compared to GSK-3B inhibitor VIII and XII
Method: The effectiveness of a number of commercially available GSK-3B inhibitors was evaluated in formation of DE from human embryonic stem cells. The following GSK-3B inhibitors were evaluated at 100 nM: GSK-3B inhibitor VIII (Catalog#361549, Calbiochem, CA), GSK-3B inhibitor IX (Catalog#361550, Calbiochem, CA), GSK-3B inhibitor XI (Catalog#361553, Calbiochem, CA), GSK-3B inhibitor XII (Catalog#361554, Calbiochem, CA). […] Control cultures were treated with low serum plus high dose of AA. FIG. 47, panels a and b depicts the gene expression of definitive endoderm markers at day 5. GSK-3B inhibitor IX and XI were both effective in inducing DE formation as compared to GSK-3B inhibitor VIII and XII.

H9P55 cells = assay: Definitive endoderm on human fibronectin or […] (FACS, real-time PCR); type: cell-based; settings: fibronectin vs MATRIGEL coated plates
Method: H9P55 cells were grown and differentiated on human fibronectin or regular growth factor […]™ (BD Biosciences). 1 ml of DMEM/F12 (Invitrogen/GIBCO) containing 1 ug/ml of human fibronectin (R&D systems, MN) was added to each well of 6 well tissue culture treated dish. Alternatively, regular growth factor […]™ was diluted 1:10 in DMEM/F12 and 1 ml of diluted […]™ was added to each well of 6 well tissue culture treated dish. Cells were passed with collagenase. […] Real-time PCR results (FIG. 39) confirm that formation of definitive endoderm was equivalent on fibronectin and […]™ coated plates.

[4] = test system: human embryonic stem cell line H9; settings: activin A or retinoic acid alone
Method: Cultures were harvested and samples of mRNA were collected for analysis.
Cells seeded on 0.1% Matrigel (BD) coated dishes were fixed with 4% paraformaldheyde for 20 min at room temperature. Fixed cells were blocked for 1 h at room temperature with PBS/0.1%BSA/10% normal chick serum /0.5% Triton X-100 and then incubated overnight with primary antibodies in PBS/0.1%BSA/10% normal chick serum at 4° C. After three washes in PBS/0.1% BSA, fluorescent secondary antibodies at a 1:100 dilution in PBS were incubated with cells for 1 h at room temperature to allow binding. Control samples included reactions where the primary antibody was omitted or where the primary antibody was replaced with corresponding matched negative control immunoglobulins at the same concentration as the primary antibodies. […]
Real-time PCR amplification and quantitative analysis: Unless otherwise stated, all reagents were purchased from Applied Biosystems. […] For each primer/probe set, a Ct value was determined as the cycle number at which the fluorescence intensity reached a specific value in the middle of the exponential region of amplification. Relative gene expression levels were calculated using the comparative Ct method. […] The normalized amount of target was calculated as 2-ΔCt, assuming amplification to be 100% efficiency. […]

[5] = test system: pancreatic endoderm cells derived from human embryonic stem cells; assay: Passage and expansion of pancreatic endoderm cells in culture with FGF10 (Q-PCR); type: cell-based; settings: 50 ng/ml FGF10, 6 day culture period
Method: The low serum DMEM/F12 contained 0% (v/v) fetal bovine serum (FBS) on day 1, 0.5% (v/v) FBS on day two and 2% (v/v) FBS on each day thereafter. After four days of differentiation, the cells were cultured in low serum DMEM/F12 contained 2% (v/v) FBS, 1 μM retinoic acid and 50 ng/ml bFGF for a total of six more days. After the six days of differentiation, the cells were maintained in culture in low serum DMEM/F12 contained 2% (v/v) FBS in the presence of 50 ng/ml FGF10 for a total of 6 days. During the six-day culture period, the pancreatic endoderm cells were passaged twice and cell population-doubling time is about 36 to 48 hours during this 6-day culture. On days 0, 3, and 6 of culture, Q-PCR was used to measure the expression of marker genes indicative of pancreatic endoderm.

[6] = test system: H9P53 embryonic stem cells; assay: Definitive endoderm on […]: combination of Wnt-3a, GSK-3B inhibitor, BMP-4; type: cell-based, human; settings: 25 ng/ml BMP-4 added to the DE protocol
Description: Results are expressed as fold increase over untreated cells. […] Results are expressed as fold increase over untreated cells.

H1P55 ES cells = assay: Definitive endoderm on […]: role of Wnt1 (real-time PCR); type: cell-based, human; settings: 20 ng/ml Wnt1 in the presence of 100 ng/ml AA
Method: The following combinations of WNT1+AA were tested:
a) 20 ng/ml of WNT1+100 ng/ml AA in 0.5% FBS+DM-F12 for days 1-2 followed by 2% FBS+DM-F12+100 ng/ml AA for day three, b) 20 ng/ml of WNT1+100 ng/ml AA in 0.5% FBS+DM-F12 for days 1-2 followed by 2% FBS+DM-F12+100 ng/ml AA for days 3-5, c) 10 ng/ml of WNT1+100 ng/ml AA in 0.5% FBS+DM-F12 for days 1-2 followed by 2% FBS+DMF12+100 ng/ml AA for day three, d) 10 ng/ml of WNT1+100 ng/ml AA in 0.5% FBS+DM-F12 for days 1-2 followed by 2% FBS+DM-F12+100 ng/ml AA for days 3-5, e) 20 ng/ml of WNT1+100 ng/ml AA in 0.5% FBS+DM-F12 for days 1-2 followed by 2% FBS+DM-F12+100 ng/ml AA+20 ng/ml of WNT1 for day three, f) 20 ng/ml of WNT1+100 ng/ml AA in 0.5% FBS+DM-F12 for days 1-2 followed by 2% FBS+DM-F12+100 ng/ml AA+20 ng/ml of WNT1 for days 3-5.

H9 cells = assay: Definitive endoderm after treatment with Wnt inhibitor DKK-1 (real-time PCR); type: cell-based, human; settings: 100 ng/ml DKK1 with 20 ng/ml Wnt3a and 100 ng/ml activin A
Method: To determine if the addition of Wnt-3a was causing the increase in differentiation, an inhibitor of Wnt-3 signaling was added to the cultures. […] H9 cells were cultured on plates coated with Growth Factor Reduced […] at a 1:30 dilution. The plates were coated with […] for 1 hr at room temperature.
At day 5, the cultures were analyzed by real time PCR for SOX-17, SOX-7, Alpha-fetal protein (AFP), CXCR4, Brychyury (Bry), gooscecoid (GSC), HNF-3 beta, GATA4, hTERT and Oct4. AFP and SOX-7 are regarded as visceral endoderm markers while GATA4, HNF-3beta and SOX-17 represent definite endoderm markers and GSC, Bry, and CXCR4 represent markers of primitive streak. hTERT and Oct-4 are markers for self renewal and pluripotency respectively.

Molecule: CC1(C)CCC(C)(C)c2cc(C(=O)Nc3ccc(C(=O)O)cc3)ccc21 [AM-580, 4-[(5,6,7,8-Tetrahydro-5,5,8,8-tetramethyl-2-naphthalenyl)carboxamido]benzoic acid]
- AFP and CDX-2 expression ([1]; 10 μM AM-580): suppressed
- expression of PDX-1 ([1]; 10 μM AM-580): maintaining a high expression

Molecule: O=C1Nc2cc(Br)ccc2/C1=C1/Nc2ccccc2/C1=N\O [GSK-3B inhibitor IX]
- expression of definitive endoderm markers [2]: Robust expression
- number of CXCR4 positive cells ([3]; 20 ng/ml Wnt-3a or 100-1000 nM GSK-3B inhibitor): significantly increased
- expression of CXCR4 by FACS ([3]; 10 nm GSK-3B inhibitor): very low
- inducing DE formation (H1P54 ES cells): effective

Molecule: fibronectin
- formation of definitive endoderm (real-time PCR) (H9P55 cells): equivalent

Molecule: CC1=C(/C=C/C(C)=C/C=C/C(C)=C/C(=O)O)C(C)(C)CCC1 [retinoic acid, all-trans retinoic acid]
- foregut endoderm markers, such as CDX-2 and AFP ([1]; 1 μM RA followed by bFGF): robust expression
- pancreatic endoderm markers, such as PDX-1 ([1]; 1 μM RA followed by bFGF): significantly upregulates
- expression of Pdx1 [4]: did not induce

Molecule: O=C1NC(=O)C(c2cn(CCCO)c3ncccc23)=C1c1cnccn1 [GSK-3B inhibitor XI]
- inducing DE formation (H1P54 ES cells): effective

B1: FGF10: fibroblast growth factor FGF10, 50 ng/ml (protein, UniProt O15520 38-208, looked up)
Fibroblast growth factor 10: QALGQDMVSPEATNSSSSSFSSPSSAGRHVRSYNHLQGDVRWRKLFSFTKYFLKIEKNGKVSGTKKENCPYSILEITSVEIGVVAVKAINSNYYLAMNKKGKLYGSKEFNNDCKLKERIEENGYNTYASFNWQHNGRQMYVALNGKGAPRRGQKTRRKNTSAHFLPMVVHS
- expression of pancreatic endoderm marker Pdx1 [5]: maintained expression

B2: BMP-4: BMP-4 (Catalog#314-BP-010, R&D Systems, MN) (protein, UniProt P12644 293-408, looked up)
Bone morphogenetic protein 4: SPKHHSQRARKKNKNCRRHSLYVDFSDVGWNDWIVAPPGYQAFYCHGDCPFPLADHLNSTNHAIVQTLVNSVNSSIPKACCVPTELSAISMLYLDEYDKVVLKNYQEMVVEGCGCR
- mesoderm marker BRY [6]: induce formation of mesoderm marker BRY

B3: Wnt1: WNT-1 (PeproTech, NJ, Catalogue#120-17) (protein, UniProt P04628 28-370, looked up)
Proto-oncogene Wnt-1: ANSSGRWWGIVNVASSTNLLTDSKSLQLVLEPSLQLLSRKQRRLIRQNPGILHSVSGGLQSAVRECKWQFRNRRWNCPTAPGPHLFGKIVNRGCRETAFIFAITSAGVTHSVARSCSEGSIESCTCDYRRRGPGGPDWHWGGCSDNIDFGRLFGREFVDSGEKGRDLRFLMNLHNNEAGRTTVFSEMRQECKCHGMSGSCTVRTCWMRLPTLRAVGDVLRDRFDGASRVLYGNRGSNRASRAELLRLEPEDPAHKPPSPHDLVYFEKSPNFCTYSGRLGTAGTAGRACNSSSPALDGCELLCCGRGHRTRTQRVTERCNCTFHWCCHVSCRNCTHTRVLHECL
- definitive endoderm markers (Bry, CXCR4, GSC, SOX17, HNF-3B, and GATA-4) (H1P55 ES cells): significant up regulation

B4: DKK1: Wnt Inhibitor DKK-1 (Dikkopf-1) (protein, UniProt O94907 32-266, looked up)
Dickkopf-related protein 1: TLNSVLNSNAIKNLPPPLGGAAGHPGSAVSAAPGILYPGGNKYQTIDNYQPYPCAEDEECGTDEYCASPTRGGDAGVQICLACRKRRKRCMRHAMCCPGNYCKNGICVSSDQNHFRGEIEETITESFGNDHSTLDGYSRRTTLSSKMYHTKGQEGSVCLRSSDCASGLCCARHFWSKICKPVLKEGQVCTKHRRKGSHGLEIFQRCYCGEGLSCRIQKDHHQASNSSRLHTCQRH
- expression level of differentiation markers (CXCR4, GATA4, HNF-3beta, SOX17, goosecoid) (H9 cells): dramatically decrease to levels similar to that of untreated cells
